Data set [1] deals with Glutathione S-transferase P (Homo sapiens, UniProt P09211). The data set can be described thus: Inhibition of GSTP1-1 (unknown origin) using reduced GSH and CDNB as substrate incubated for 10 mins followed by substrate addition by microplate reader analysis.
Data set [2] has as its target T1, Glutathione S-transferase Mu 2 (Homo sapiens, UniProt P28161).
T1 sequence (P28161 whole entry): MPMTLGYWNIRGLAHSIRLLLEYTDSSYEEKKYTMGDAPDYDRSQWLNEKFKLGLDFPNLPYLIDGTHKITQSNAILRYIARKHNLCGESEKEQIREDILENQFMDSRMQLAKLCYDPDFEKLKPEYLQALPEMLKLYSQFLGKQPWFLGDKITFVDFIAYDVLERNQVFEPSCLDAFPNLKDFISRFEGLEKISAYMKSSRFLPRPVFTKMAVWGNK
The data set can be described thus: Inhibition of GSTM2-2 (unknown origin) using reduced GSH and CDNB as substrate incubated for 10 mins followed by substrate addition by microplate reader analysis.

Data set [3] in a line: Water solubility of the compound measured by UV-Visible spectral analysis. The class given is physicochemical. The settings on record: buffer.
The next data set has as its system HUVEC. The data set can be described thus: Cytotoxicity against HUVEC assessed as reduction in cell viability incubated for 72 hrs by MTT assay. In kind it is cell-based. Particulars: Homo sapiens. A general note: Tetrazolium dyes change colour on reduction, which living cells bring about.
The next data set relates to L02. The data set can be described thus: Cytotoxicity against human L02 cells assessed as reduction in cell viability incubated for 72 hrs by MTT assay. In kind it is cell-based. Particulars: L02, 72 h.
Another data set concerns A549. The data set can be described thus: Antiproliferative activity against human A549 cells assessed as inhibition of cell proliferation incubated for 72 hrs by MTT assay. In kind it is functional, cell-based. Particulars: A549, 72 h.
Data set [4] can be described thus: Antiproliferative activity against […] B16 cells assessed as inhibition of cell proliferation incubated for 72 hrs by MTT assay. The settings on record: B16, 72 h. The class given is functional, cell-based.
The subject of data set [5] is 143B. The data set can be described thus: Antiproliferative activity against human 143B cells assessed as inhibition of cell proliferation incubated for 72 hrs by MTT assay. In kind it is functional, cell-based.
The next data set concerns HOS. The data set can be described thus: Antiproliferative activity against human HOS cells assessed as inhibition of cell proliferation incubated for 72 hrs by MTT assay. In kind it is functional, cell-based.
Data set [6] has as its system 143B. The data set can be described thus: Antitumor activity against human 143B cells xenografted in BALB/c nude mouse assessed as tumor growth inhibition at 5 mg/kg, po administered once daily for 28 consecutive days relative to control. The class given is functional. Particulars: 672 h, time 28 day, read-out: TGI.

SMILES strings stand for the structures.

Glutathione S-transferase P, sequence (P09211 whole entry): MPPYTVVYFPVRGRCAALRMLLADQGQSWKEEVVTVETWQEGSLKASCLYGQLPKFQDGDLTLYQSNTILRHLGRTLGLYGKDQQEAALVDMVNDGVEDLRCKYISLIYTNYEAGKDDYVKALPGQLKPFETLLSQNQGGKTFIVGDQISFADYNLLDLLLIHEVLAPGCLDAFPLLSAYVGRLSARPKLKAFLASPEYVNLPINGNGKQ

Regarding `CN(C)CCNC(=O)CCC(=O)OCCCCCCSc1ccc([N+](=O)[O-])c2nonc12`, the IC50 (as a rule, the point on the concentration scale where inhibition reaches its midpoint) in data set [1] amounted to 0.54 µM; in data set [2] it was 0.16 µM; with HUVEC, 2.16 µM; in the data set with L02 it was 5.98 µM; in the data set with A549, 5.55 µM; in data set [4], 1.14 µM. Moreover, the IC50 is 2.19 µM in the data set with 143B [5] and 5.02 µM with HOS. The solubility result in data set [3] is reported as “Soluble”.
As to `O=C(CCC(=O)OCCCCCCSc1ccc([N+](=O)[O-])c2nonc12)Nc1cccc(Cl)c1`, the IC50 in data set [1] is 28.8 µM; in data set [2], 1.1 µM; in the data set on HUVEC, 1.09 µM; in the data set on L02, 6.93 µM; in the data set with A549, 5.29 µM; in [4], 3.11 µM. Moreover, the IC50 with 143B [5] came to 2.89 µM; in the data set on HOS it was 1.92 µM.
Regarding `O=C(CCC(=O)OCCCCCCSc1ccc([N+](=O)[O-])c2nonc12)NCCN1CCCC1`, the IC50 was 0.46 µM in [1]; 0.2 µM in data set [2]; 6.07 µM in the data set with HUVEC; 6.58 µM with L02; 3.24 µM in the data set on A549; 3.5 µM in data set [4]. Further, the half-maximal inhibitory concentration (IC50) in the data set on 143B [5] came to 5.58 µM; in the data set with HOS, 3.3 µM. The solubility entry in data set [3] is reported as “Soluble”.
In the case of `O=C(CCC(=O)OCCCCCCSc1ccc([N+](=O)[O-])c2nonc12)Nc1ccccc1Cl`, the IC50 in [1] was found to be 15.5 µM; in data set [2], 0.33 µM; in the data set on HUVEC, 2.95 µM; in the data set with L02, 5.85 µM; with A549 it was 2.75 µM; in data set [4] it was 2.39 µM. Besides, the IC50 in the data set with 143B [5] was determined as 2.43 µM.
In the case of `O=C(CCC(=O)OCCCCCCSc1ccc([N+](=O)[O-])c2nonc12)Nc1ccc(F)c(Cl)c1`, the IC50 stood at 9.85 µM in data set [1]; 0.47 µM in data set [2]; 2.32 µM in the data set with HUVEC; 4.57 µM in the data set with L02; 3.21 µM in the data set on A549; 4.17 µM in data set [4]. The IC50 is 2.99 µM in the data set with 143B [5] and 2.8 µM with HOS.
Regarding `COc1ccc(NC(=O)CCC(=O)OCCCCCCSc2ccc([N+](=O)[O-])c3nonc23)cc1`, the IC50 in data set [1] turned out to be 0.42 µM; in data set [2], 0.13 µM; in the data set with HUVEC, 1.59 µM; in the data set on L02, 8.17 µM; with A549, 6.48 µM; in [4] it was 2.87 µM. The IC50 was determined as 3.06 µM in the data set with 143B [5] and 1.8 µM with HOS.
Regarding `O=C(CCC(=O)N1CCCCC1)OCCCCCCSc1ccc([N+](=O)[O-])c2nonc12`, the IC50 in [1] amounted to 0.5 µM; in data set [2], 0.11 µM; with HUVEC it was 1.99 µM; in the data set on L02, 3.97 µM; in the data set on A549, 2.51 µM; in data set [4] it was 0.86 µM. In addition, the IC50 with 143B [5] stood at 1.9 µM; in the data set on HOS, 1.79 µM.
Turning to `O=C(CCC(=O)OCCCCCCSc1ccc([N+](=O)[O-])c2nonc12)Nc1ccccc1F`, the IC50 in data set [1] worked out at 9.89 µM; in data set [2], 0.35 µM; in the data set on HUVEC, 0.84 µM; in the data set on L02, 4.27 µM; in the data set with A549, 2.44 µM; in data set [4], 2.12 µM. In addition, the results for the IC50 with 143B [5] and in the data set on HOS were 3.03 µM and 2.35 µM, respectively.
In the case of `O=C(O)CCC(=O)OCCCCCCSc1ccc([N+](=O)[O-])c2nonc12`, the IC50 in data set [1] was determined as 0.53 µM; in [2] it was 0.16 µM; with HUVEC it was 0.74 µM; in the data set with L02 it was 1.89 µM; in the data set with A549, 3.64 µM; in data set [4] it was 3.65 µM. The figures for the IC50 with 143B [5] and in the data set on HOS were 2.83 µM and 8.74 µM, respectively.
As to `O=[N+]([O-])c1ccc(SCCCCCCO)c2nonc12`, the IC50 in data set [2] is 0.02 µM; in the data set with A549, 2.88 µM; in [4], 1.35 µM; with 143B [5], 4.08 µM; in the data set with HOS, 1.24 µM. The inhibition in vivo at 5 mg/kg in the data set with 143B [6] stood at 38.6%.
`O=C(CCC(=O)OCCCCCCSc1ccc([N+](=O)[O-])c2nonc12)Nc1ccc(F)cc1`: the IC50 in data set [1] stood at 8.57 µM; in data set [2], 0.32 µM; in the data set with HUVEC, 1.74 µM; in the data set on L02, 6.46 µM; in the data set on A549, 6.3 µM; in [4], 2.02 µM. Further, the IC50 stood at 2.5 µM in the data set on 143B [5] and 2.08 µM with HOS.
With `O=C(CCC(=O)OCCCCCCSc1ccc([N+](=O)[O-])c2nonc12)NCCN1CCOCC1`, the IC50 in data set [1] came to 35 µM; in data set [2], 0.1 µM; with HUVEC, 1.07 µM; in the data set with L02 it was 3.01 µM; with A549, 2.15 µM; in [4], 1.8 µM. Besides, the IC50 came out at 2.82 µM in the data set on 143B [5] and 1.81 µM in the data set with HOS. In addition, the solubility result in data set [3] is “Soluble”.
Regarding `Cc1ccc(NC(=O)CCC(=O)OCCCCCCSc2ccc([N+](=O)[O-])c3nonc23)cc1`, the IC50 in data set [1] was found to be 6.8 µM; in data set [2] it was 0.39 µM; in the data set with HUVEC, 2.34 µM; with L02, 7.32 µM; with A549 it was 5.24 µM; in data set [4], 1.95 µM. The IC50 amounted to 3.25 µM in the data set on 143B [5] and 3.34 µM in the data set with HOS.
Take `CCN(CC)CCCNC(=O)CCC(=O)OCCCCCCSc1ccc([N+](=O)[O-])c2nonc12`: the IC50 in data set [1] came to 9.55 µM; in data set [2] it was 0.44 µM; in the data set with HUVEC it was 2.95 µM; in the data set on L02 it was 6.77 µM; in the data set on A549, 2.57 µM; in [4] it was 2.94 µM. For the same molecule, the IC50 with 143B [5] turned out to be 3.44 µM; with HOS it was 9.06 µM. In addition, the solubility entry in [3] is reported as “Soluble”.
Turning to `COc1ccccc1NC(=O)CCC(=O)OCCCCCCSc1ccc([N+](=O)[O-])c2nonc12`, the IC50 in data set [1] was 4.05 µM; in data set [2], 0.28 µM; in the data set on HUVEC, 1.61 µM; with L02 it was 4.49 µM; with A549, 1.87 µM; in data set [4], 1.38 µM. The IC50 turned out to be 2.12 µM in the data set with 143B [5] and 2.85 µM with HOS.
On to `O=C(CCC(=O)OCCCCCCSc1ccc([N+](=O)[O-])c2nonc12)Nc1ccc(C(F)(F)F)cc1`, for which the IC50 was 5.05 µM in [1]; 0.09 µM in data set [2]; 1.39 µM in the data set on HUVEC; 5.01 µM with L02; 4.02 µM in the data set on A549; 1.12 µM in data set [4]. Further, the IC50 in the data set on 143B [5] was determined as 2.1 µM; in the data set with HOS, 3.2 µM.
Consider `O=C(CCC(=O)OCCCCCCSc1ccc([N+](=O)[O-])c2nonc12)Nc1ccc(Br)cc1`, for which the IC50 in data set [1] is 5.09 µM; in data set [2], 32 µM; in the data set on HUVEC it was 1.61 µM; in the data set on L02, 4.33 µM; in the data set with A549, 3.34 µM; in data set [4], 2.64 µM. Moreover, the IC50 in the data set with 143B [5] is 2.71 µM; in the data set on HOS, 2.16 µM.
On to `Cc1ccccc1NC(=O)CCC(=O)OCCCCCCSc1ccc([N+](=O)[O-])c2nonc12`, for which the IC50 amounted to 4.1 µM in [1]; 0.44 µM in data set [2]; 1.41 µM in the data set with HUVEC; 9.49 µM in the data set with L02; 4.2 µM with A549; 6.49 µM in data set [4]. For the same molecule, the IC50 in the data set with 143B [5] stood at 4.66 µM; in the data set with HOS, 4.02 µM.
Consider `O=C(CCC(=O)N1CCOCC1)OCCCCCCSc1ccc([N+](=O)[O-])c2nonc12`, for which the IC50 in data set [1] is 0.33 µM; in data set [2], 0.17 µM; in the data set on HUVEC it was 5.34 µM; in the data set with L02, 3.24 µM; with A549, 1.67 µM; in [4], 0.82 µM. In addition, the IC50 was 1.53 µM in the data set with 143B [5] and 1.01 µM in the data set on HOS.
As to `COc1ccc(NC(=O)CCC(=O)OCCCCCCSc2ccc([N+](=O)[O-])c3nonc23)cc1OC`, the IC50 in data set [1] is 6.47 µM; in data set [2] it was 0.36 µM; with HUVEC, 0.87 µM; with L02, 4.1 µM; in the data set with A549 it was 3.89 µM; in [4], 2.35 µM. Moreover, the IC50 with 143B [5] came out at 2.77 µM; with HOS, 1.39 µM.
With `O=C(CCC(=O)OCCCCCCSc1ccc([N+](=O)[O-])c2nonc12)Nc1ccccc1`, the IC50 in data set [1] stood at 10.2 µM; in data set [2], 0.7 µM; with HUVEC it was 2.49 µM; in the data set with L02 it was 6.49 µM; with A549 it was 1.96 µM; in data set [4], 1.26 µM. Moreover, the IC50 was 3.85 µM in the data set with 143B [5] and 2.12 µM with HOS.

Values taken from ChEMBL document CHEMBL4732174, “Discovery of 6-(7-Nitro-2,1,3-benzoxadiazol-4-ylthio)hexanol Derivatives as Glutathione Transferase Inhibitors with Favorable Selectivity and Tolerated Toxicity” (J Med Chem, 2021).
